{"source": "paper PMC10936414", "about": "(mBio, 2024)", "key": {"VSV-SARS-CoV-2 [1]": {"tested_on": "VSV-SARS-CoV-2", "experiment": "organism not typed", "format": "cell-based"}, "VSV [2]": {"tested_on": "VSV", "experiment": "microbe, parasite or virus in culture", "format": "cell-based"}, "VSV [3]": {"tested_on": "VSV", "details": "ref [12]; cited from earlier work"}, "MA104 cells": {"tested_on": "MA104 cells", "details": "treated 25 h, WST-8"}, "VSV-SARS-CoV-2 [4]": {"tested_on": "VSV-SARS-CoV-2", "format": "cell-based", "details": "MA104, MOI of 3, 24 hpi"}, "SARS-CoV": {"tested_on": "SARS-CoV", "details": "ref [6]; cited from earlier work"}, "SARS-CoV-2-mNeonGreen": {"tested_on": "SARS-CoV-2-mNeonGreen", "experiment": "SARS-CoV-2-mNeonGreen infection of Vero E6 cells", "format": "cell-based"}, "VSV-SARS-CoV-2 [5]": {"tested_on": "VSV-SARS-CoV-2", "experiment": "organism not typed", "format": "cell-based", "remark": "listed apart in the source"}, "SARS-CoV-2": {"tested_on": "SARS-CoV-2", "details": "ref [4], [7]; cited from earlier work"}, "in vitro": {"experiment": "in vitro", "details": "African green monkey"}, "[6]": {"details": "Vesicular stomatitis virus, MA104, read-out: EC50 against VSV"}, "[7]": {"details": "MA104, read-out: EC50 against VSV-SARS-CoV-2, MA104 cells, pre-treated 1 h, 24 h infection, MOI = 1, GFP signal"}, "[8]": {"details": "MA104, read-out: EC50 against VSV-SARS-CoV-2 (Fig. S1), MA104 cells, treated 1 h prior, MOI of 0.5, 24 hpi"}}, "note": "Like-named read-outs stand apart in the source and are kept apart here. Residues, ends and D or L forms follow the SMILES beside them. *: point of attachment. Cbz = O=C(OCc1ccccc1)*", "data": [{"smiles": "C[C@H]1CCC/C=C/[C@@H]2C[C@H](O)C[C@H]2[C@H](O)/C=C/C(=O)O1", "note": "[Brefeldin A, brefeldin A]", "values": [{"measurement": "EC50", "setting": "VSV-SARS-CoV-2 [1]; read-out: EC50 against VSV-SARS-CoV-2, MA104 cells, pre-treated 1 h, 24 h infection, MOI = 1, GFP signal", "result": "< 2", "unit": "µM"}]}, {"smiles": "O=C(O)/C=C/c1ccc(O)c(O)c1", "note": "[Caffeic Acid, caffeic acid]", "values": [{"measurement": "EC50", "setting": "VSV [2]; [6]", "result": 6.7, "unit": "µM"}, {"measurement": "EC50", "setting": "VSV-SARS-CoV-2 [1]; [7]", "result": 4.66, "unit": "µM"}]}, {"smiles": "C/C=C/[C@H]1O[C@@](O)([C@@H](C)[C@H](O)[C@H](C)[C@H]2OC(=O)/C(OC)=C/C(C)=C/[C@@H](C)[C@@H](O)[C@@H](CC)[C@@H](O)[C@H](C)C/C(C)=C/C=C/[C@@H]2OC)C[C@@H](O[C@H]2C[C@@H](O)[C@H](OC(N)=O)[C@@H](C)O2)[C@@H]1C", "note": "[Concanamycin A, concanamycin A]", "values": [{"measurement": "EC50", "setting": "VSV [2]; [6]", "result": 5.55, "unit": "µM"}, {"measurement": "EC50", "setting": "VSV-SARS-CoV-2 [1]; [7]", "result": "< 0.01", "unit": "µM"}]}, {"smiles": "CCOC(=O)[C@H]1O[C@@H]1C(=O)N[C@@H](CC(C)C)C(=O)NCCC(C)C", "note": "[E-64d]", "values": [{"measurement": "sensitivity of VSV to treatment (in words)", "setting": "VSV [3]", "result": "not be sensitive to E-64d treatment"}, {"measurement": "CC50", "setting": "MA104 cells", "result": "> 300", "unit": "µM"}]}, {"smiles": "CCCCCCCCc1ccc(CCC(N)(CO)CO)cc1", "note": "[FTY720]", "values": [{"measurement": "EC50", "setting": "VSV [2]; [6]", "result": 16.5, "unit": "µM"}, {"measurement": "EC50", "setting": "VSV-SARS-CoV-2 [1]; [7]", "result": 5.17, "unit": "µM"}]}, {"smiles": "CC(C)Cn1c(=O)n(C)c(=O)c2[nH]cnc21", "note": "[IBMX, 3-isobutyl-1-methylxanthine]", "values": [{"measurement": "EC50", "setting": "VSV [2]; [6]", "result": "< 2", "unit": "µM"}, {"measurement": "EC50", "setting": "VSV-SARS-CoV-2 [1]; [7]", "result": "< 2", "unit": "µM"}]}, {"smiles": "Clc1ccc(N/N=C(\\c2ccccc2)c2ccccn2)nc1", "note": "[JIB-04]", "values": [{"measurement": "percentage of inhibition", "setting": "VSV-SARS-CoV-2 [4]; JIB-04 0.3 µM, NTZ 0 µM", "result": 21, "unit": "%"}, {"measurement": "percentage of inhibition", "setting": "VSV-SARS-CoV-2 [4]; JIB-04 1 µM, NTZ 0 µM", "result": 50, "unit": "%"}, {"measurement": "percentage of inhibition", "setting": "VSV-SARS-CoV-2 [4]; JIB-04 3 µM, NTZ 0 µM", "result": 73, "unit": "%"}, {"measurement": "percentage of inhibition", "setting": "VSV-SARS-CoV-2 [4]; JIB-04 10 µM, NTZ 0 µM", "result": 90, "unit": "%"}]}, {"smiles": "CC(=O)N1CCN(c2ccc(OCC3COC(Cn4ccnc4)(c4ccc(Cl)cc4Cl)O3)cc2)CC1", "note": "(stereo not shown) [Ketoconazole, ketoconazole]", "values": [{"measurement": "EC50", "setting": "VSV [2]; [6]", "result": "> 100", "unit": "µM"}, {"measurement": "EC50", "setting": "VSV-SARS-CoV-2 [1]; [7]", "result": 30.1, "unit": "µM"}]}, {"smiles": "CC(C)C[C@@H](C=O)NC(=O)[C@H](CC(C)C)NC(=O)[C@H](CC(C)C)NC(=O)OCc1ccccc1", "note": "[MG132] (Cbz-Leu-Leu-Leu-aldehyde)", "values": [{"measurement": "SARS-CoV replication (in words)", "setting": "SARS-CoV", "result": "impair SARS-CoV replication"}, {"measurement": "EC50", "setting": "VSV-SARS-CoV-2 [1]; [7]", "result": 0.64, "unit": "µM"}, {"measurement": "selectivity in antiviral activities, VSV EC50 compared to VSV-SARS-CoV-2 EC50", "setting": "VSV-SARS-CoV-2 [1]; MA104 cells", "result": 100, "unit": "fold"}]}, {"smiles": "CC(=O)Oc1ccccc1C(=O)Nc1ncc([N+](=O)[O-])s1", "note": "[Nitazoxanide, nitazoxanide]", "values": [{"measurement": "percentage of inhibition", "setting": "VSV-SARS-CoV-2 [4]; JIB-04 0 µM, NTZ 1 µM", "result": 16, "unit": "%"}, {"measurement": "percentage of inhibition", "setting": "VSV-SARS-CoV-2 [4]; JIB-04 0 µM, NTZ 3 µM", "result": 24, "unit": "%"}, {"measurement": "percentage of inhibition", "setting": "VSV-SARS-CoV-2 [4]; JIB-04 0 µM, NTZ 10 µM", "result": 42, "unit": "%"}, {"measurement": "percentage of inhibition", "setting": "VSV-SARS-CoV-2 [4]; JIB-04 0 µM, NTZ 30 µM", "result": 92, "unit": "%"}, {"measurement": "SI (selectivity index)", "setting": "SARS-CoV-2-mNeonGreen; SARS-CoV-2-mNeonGreen, Vero E6 cells", "result": 167}, {"measurement": "EC50", "setting": "SARS-CoV-2-mNeonGreen; Severe acute respiratory syndrome coronavirus 2, Vero C1008, read-out: EC50 against SARS-CoV-2-mNeonGreen", "result": 4.9, "unit": "µM"}, {"measurement": "EC50", "setting": "VSV [2]; [6]", "result": 16.3, "unit": "µM"}, {"measurement": "EC50", "setting": "VSV-SARS-CoV-2 [1]; [8]", "result": 5.82, "unit": "µM"}, {"measurement": "EC50", "setting": "VSV-SARS-CoV-2 [1]; [7]", "result": 10.5, "unit": "µM"}, {"measurement": "SI (selectivity index)", "setting": "VSV-SARS-CoV-2 [1]; VSV-SARS-CoV-2, MA104 cells", "result": 237}]}, {"smiles": "COc1ccc2cc1Oc1ccc(cc1)C[C@H]1c3cc(c(OC)cc3CCN1C)Oc1c(OC)c(OC)cc3c1[C@H](C2)N(C)CC3", "note": "[Tetrandrine, tetrandrine]", "values": [{"measurement": "EC50", "setting": "VSV [2]; [6]", "result": 23.2, "unit": "µM"}, {"measurement": "EC50", "setting": "VSV-SARS-CoV-2 [1]; [7]", "result": 1.23, "unit": "µM"}]}, {"smiles": "C/C=C(/C)C(=O)O[C@H]1C(C)=C2[C@H]([C@@H]1OC(=O)CCCCCCC)[C@@](C)(OC(C)=O)C[C@H](OC(=O)CCC)[C@@]1(O)[C@H]2OC(=O)[C@@]1(C)O", "note": "[Thapsigargin, thapsigargin]", "values": [{"measurement": "EC50", "setting": "VSV [2]; [6]", "result": 4.08, "unit": "µM"}, {"measurement": "EC50", "setting": "VSV-SARS-CoV-2 [1]; [7]", "result": 0.22, "unit": "µM"}]}, {"smiles": "CC(C)[C@H](NC(=O)OCc1ccccc1)C(=O)N[C@H](C=O)Cc1ccccc1", "note": "[calpain inhibitor III] (Cbz-Val-Phe-aldehyde)", "values": [{"measurement": "CC50", "setting": "MA104 cells", "result": "> 300", "unit": "µM"}, {"measurement": "EC50", "setting": "VSV [2]; read-out: EC50 against VSV", "result": 10.7, "unit": "µM"}, {"measurement": "EC50", "setting": "VSV-SARS-CoV-2 [5]; Vero E6 cells, pre-treated 1 h, 24 h infection, read-out: EC50 against VSV-SARS-CoV-2 in Vero E6 cells", "result": "< 0.5", "unit": "µM"}, {"measurement": "selectivity in antiviral activities, VSV EC50 compared to VSV-SARS-CoV-2 EC50", "setting": "VSV-SARS-CoV-2 [1]; MA104 cells", "result": "more than 30 fold"}, {"measurement": "EC50", "setting": "VSV-SARS-CoV-2 [1]; MA104 cells, pre-treated 1 h, 24 h infection, MOI = 1, GFP signal, read-out: EC50 against VSV-SARS-CoV-2", "result": 0.231, "unit": "µM"}]}, {"smiles": "CSCC[C@@H](C=O)NC(=O)[C@H](CC(C)C)NC(=O)[C@H](CC(C)C)NC(C)=O", "note": "[calpain inhibitor II] (Ac-Leu-Leu-Met-aldehyde)", "values": [{"measurement": "suppression of SARS-CoV-2 replication (in words)", "setting": "SARS-CoV-2", "result": "suppressed SARS-CoV-2 replication"}]}, {"smiles": "CCCC[C@@H](C=O)NC(=O)[C@H](CC(C)C)NC(=O)OCc1ccccc1", "note": "[calpeptin]", "values": [{"measurement": "CC50", "setting": "in vitro", "result": 300, "unit": "µM"}, {"measurement": "suppression of SARS-CoV-2 replication (in words)", "setting": "SARS-CoV-2", "result": "suppressed SARS-CoV-2 replication"}, {"measurement": "EC50", "setting": "VSV [2]; [6]", "result": 7.43, "unit": "µM"}, {"measurement": "EC50", "setting": "VSV-SARS-CoV-2 [5]; Vero C1008, read-out: EC50 against VSV-SARS-CoV-2 in Vero E6 cells, Vero E6 cells, pre-treated 1 h, 24 h infection", "result": "< 0.5", "unit": "µM"}, {"measurement": "EC50", "setting": "VSV-SARS-CoV-2 [1]; [7]", "result": 0.208, "unit": "µM"}, {"measurement": "selectivity in antiviral activities, VSV EC50 compared to VSV-SARS-CoV-2 EC50", "setting": "VSV-SARS-CoV-2 [1]; MA104 cells", "result": "more than 30 fold"}]}, {"smiles": "O=C(/C=C/c1ccc(O)c(O)c1)O[C@H](Cc1ccc(O)c(O)c1)C(=O)O", "note": "[rosmarinic acid]", "values": [{"measurement": "CC50", "setting": "in vitro", "result": "> 300", "unit": "µM"}, {"measurement": "EC50", "setting": "VSV-SARS-CoV-2 [1]; [8]", "result": "> 100", "unit": "µM"}, {"measurement": "inhibition of VSV-SARS-CoV-2 infection (in words)", "setting": "VSV-SARS-CoV-2 [1]; MA104 cells", "result": "did not inhibit VSV-SARS-CoV-2 infection"}]}]}
